Reference: patent publication US8802597B2, “Herbicidal pyrimidines” (E I du Pont de Nemours and Company, priority 2003, dated 2014)

How the values were obtained:
Test in all cases: Test G pre/postemergence
Format in all cases: in vivo
[1] = tested on: tropical spiderwort (Commelina benghalensis)
Excerpt: (§1) Seeds or nutlets of plant species selected from bermudagrass (Cynodon dactylon), Surinam grass (Brachiaria decumbens), large crabgrass (Digitaria sanguinalis), green foxtail (Setaria viridis), goosegrass (Eleusine indica), johnsongrass (Sorghum halepense), kochia (Kochia scoparia), pitted morningglory (Ipomoea lacunosa), purple nutsedge (Cyperus rotundus), common ragweed (Ambrosia elatior), black mustard (Brassica nigra), guineagrass (Panicum maximum), dallisgrass (Paspalum dilatatum), barnyardgrass (Echinochloa crus-galli), southern sandbur (Cenchrus echinatus), common sowthistle (Sonchus oleraceous), prickly sida (Sida spinosa), Italian ryegrass (Lolium multiflorum), common purslane (Portulaca oleracea), broadleaf signalgrass (Brachiaria platyphylla), common groundsel (Senecio vulgaris), common chickweed (Stellaria media), tropical spiderwort (Commelina benghalensis), annual bluegrass (Poa annua), downy bromegrass (Bromus tectorum), itchgrass (Rottboellia cochinchinensis), quackgrass (Elytrigia repens), Canada horseweed (Conyza canadensis), field bindweed (Convolvulus arvensis), spanishneedles (Bidens bipinnata), common mallow (Malva sylvestris), and Russian thistle (Salsola kali) were planted and treated preemergence with test chemicals formulated in a non-phytotoxic solvent mixture which included a surfactant.
(§2) At the same time, plants selected from these weed species were treated with postemergence applications of some of the test chemicals formulated in the same manner. Plants ranged in height from 2 to 18 cm (1- to 4-leaf stage) for postemergence treatments. Treated plants and controls were maintained in a greenhouse for 12 to 21 days, after which time all species were compared to controls and visually evaluated.
(§3) Plant response ratings, summarized in Table G, are based on a scale of 0 to 100 where 0 is no effect and 100 is complete control. A dash (-) response means no test result.

[2] = tested on: Italian ryegrass (Lolium multiflorum)
Excerpt: as §1, §2, §3

[3] = tested on: johnsongrass (Sorghum halepense)
Excerpt: as §1, §2, §3

[4] = tested on: downy bromegrass (Bromus tectorum)
Excerpt: as §1, §2, §3

[5] = Postemergence, 8 g ai/ha, scale 0 to 100
[6] = Postemergence, 16 g ai/ha, scale 0 to 100
[7] = Postemergence, 31 g ai/ha, scale 0 to 100
[8] = Postemergence, 62 g ai/ha, scale 0 to 100
[9] = Preemergence, 8 g ai/ha, scale 0-100
[10] = Preemergence, 16 g ai/ha, scale 0-100
[11] = Preemergence, 31 g ai/ha, scale 0-100
[12] = Preemergence, 62 g ai/ha, scale 0-100
[13] = Postemergence, 250 g ai/ha, scale 0 to 100
[14] = Postemergence, 125 g ai/ha, scale 0 to 100
[15] = Preemergence, 125 g ai/ha, scale 0-100
[16] = Preemergence, 250 g ai/ha, scale 0-100

CCOC(=O)c1nc(-c2ccc(Cl)cc2)nc(N)c1Cl [Compound 64, ethyl 6-amino-5-chloro-2-(4-chlorophenyl)-4-pyrimidinecarboxylate]
Plant response rating, Spiderwort [1, 5]: 65 | Plant response rating, Spiderwort [1, 6]: 80 | Plant response rating, Spiderwort [1, 7]: 80 | Plant response rating, Spiderwort [1, 8]: 90 | Plant response rating, Spiderwort [1, 9]: 0 | Plant response rating, Spiderwort [1, 10]: 50 | Plant response rating, Spiderwort [1, 11]: 75 | Plant response rating, Spiderwort [1, 12]: 90 | Plant response rating, Ryegrass, Italian [2, 5]: 0 | Plant response rating, Ryegrass, Italian [2, 6]: 10 | Plant response rating, Ryegrass, Italian [2, 7]: 20 | Plant response rating, Ryegrass, Italian [2, 8]: 35 | Plant response rating, Ryegrass, Italian [2, 9]: 0 | Plant response rating, Ryegrass, Italian [2, 10]: 0 | Plant response rating, Ryegrass, Italian [2, 11]: 0 | Plant response rating, Ryegrass, Italian [2, 12]: 0 | Plant response rating, Johnsongrass [3, 5]: 0 | Plant response rating, Johnsongrass [3, 6]: 0 | Plant response rating, Johnsongrass [3, 7]: 0 | Plant response rating, Johnsongrass [3, 8]: 0 | Plant response rating, Johnsongrass [3, 9]: 0 | Plant response rating, Johnsongrass [3, 10]: 0 | Plant response rating, Johnsongrass [3, 11]: 0 | Plant response rating, Johnsongrass [3, 12]: 0 | Plant response rating, Bromegrass, Downy [4, 5]: 0 | Plant response rating, Bromegrass, Downy [4, 6]: 20 | Plant response rating, Bromegrass, Downy [4, 7]: 40 | Plant response rating, Bromegrass, Downy [4, 8]: 75 | Plant response rating, Bromegrass, Downy [4, 9]: 0 | Plant response rating, Bromegrass, Downy [4, 10]: 0 | Plant response rating, Bromegrass, Downy [4, 11]: 0 | Plant response rating, Bromegrass, Downy [4, 12]: 0

Nc1nc(C2CC2)nc(C(=O)OCc2ccccc2)c1Br [Compound 22, phenylmethyl 6-amino-5-bromo-2-cyclopropyl-4-pyrimidinecarboxylate]
Plant response rating, Spiderwort [1, 13]: 98 | Plant response rating, Spiderwort [1, 6]: 15 | Plant response rating, Spiderwort [1, 7]: 40 | Plant response rating, Spiderwort [1, 8]: 85 | Plant response rating, Spiderwort [1, 14]: 95 | Plant response rating, Spiderwort [1, 10]: 0 | Plant response rating, Spiderwort [1, 11]: 50 | Plant response rating, Spiderwort [1, 12]: 95 | Plant response rating, Spiderwort [1, 15]: 100 | Plant response rating, Spiderwort [1, 16]: 100 | Plant response rating, Ryegrass, Italian [2, 13]: 85 | Plant response rating, Ryegrass, Italian [2, 6]: 0 | Plant response rating, Ryegrass, Italian [2, 7]: 5 | Plant response rating, Ryegrass, Italian [2, 8]: 15 | Plant response rating, Ryegrass, Italian [2, 14]: 40 | Plant response rating, Ryegrass, Italian [2, 10]: 0 | Plant response rating, Ryegrass, Italian [2, 11]: 0 | Plant response rating, Ryegrass, Italian [2, 12]: 0 | Plant response rating, Ryegrass, Italian [2, 15]: 0 | Plant response rating, Ryegrass, Italian [2, 16]: 50 | Plant response rating, Johnsongrass [3, 10]: 0 | Plant response rating, Johnsongrass [3, 11]: 0 | Plant response rating, Johnsongrass [3, 12]: 20 | Plant response rating, Johnsongrass [3, 15]: 50 | Plant response rating, Johnsongrass [3, 16]: 80 | Plant response rating, Bromegrass, Downy [4, 13]: 95 | Plant response rating, Bromegrass, Downy [4, 6]: 15 | Plant response rating, Bromegrass, Downy [4, 7]: 65 | Plant response rating, Bromegrass, Downy [4, 8]: 85 | Plant response rating, Bromegrass, Downy [4, 14]: 95 | Plant response rating, Bromegrass, Downy [4, 10]: 0 | Plant response rating, Bromegrass, Downy [4, 11]: 0 | Plant response rating, Bromegrass, Downy [4, 12]: 0 | Plant response rating, Bromegrass, Downy [4, 15]: 20 | Plant response rating, Bromegrass, Downy [4, 16]: 75
